Measured values reported in PubChem BioAssay AID540252 (Sanford-Burnham Center for Chemical Genomics, 2011).
Activity calls are given as the source filed them. No rule for the calls is given here.

Each compound was assayed against glucose-6-phosphate dehydrogenase-6-phosphogluconolactonase (Plasmodium falciparum 3D7) (assay: inhibition of P. falciparum G6PD activity – biochemical, end-point NADPH detection, orthogonal assay, dose response (AID 540252)). Conditions: purified PfG6PD enzyme, NADPH direct detection.

Row | Structure (SMILES) | IC50
1 | COc1ccc(S(=O)(=O)Nc2cc(SCC(=O)O)c(O)c3ccccc23)cc1 | > 80 µM (inactive)
2 | O=c1c2cc(F)ccc2sn1-c1ccccc1Cl | 13.8 µM
3 | Cc1ccc(S(=O)(=O)Nc2nc(C)c(C(=O)N/N=C/c3ccccc3)s2)cc1 | > 80 µM (inactive)
4 | Cc1nc2ccc(Nc3nc4cc(S(=O)(=O)N5CCOCC5)ccc4o3)cc2s1 | > 80 µM (inactive)
5 | O=C(Cc1ccccc1)NCC(=O)OCC(=O)c1ccc([N+](=O)[O-])cc1 | 64 µM
6 | C[C@H](NC(=O)c1cc2c(cn1)[nH]c1ccccc12)C(=O)O | > 80 µM (inactive)
7 | O=c1[nH]c2ccccc2n2c(-c3ccccc3)nnc12 | > 80 µM (inactive)
8 | Cc1ccc(S(=O)(=O)N(C(=O)c2ccncc2)c2ccc(OC(=O)c3ccncc3)c3ccccc23)cc1 | > 80 µM (inactive)
9 | Nc1ccc(N(CCO)CCO)cc1 | > 80 µM (inactive)
10 | COc1ccc(CCn2c(NN)nc3c2c(=O)[nH]c(=O)n3C)cc1 | > 80 µM (inactive)
11 | COc1cc(/C=C2\CC/C(=C\c3cc(OC)c(O)c(OC)c3)C2=O)cc(OC)c1O | > 80 µM (inactive)
12 | COc1ccccc1N1C(=O)C=C(Sc2nc(C)cc(C)n2)C1=O | > 80 µM (inactive)
13 | CCC(C)(C)c1nnc(NC(=O)C2CCN(C(=O)c3ccco3)CC2)s1 | > 80 µM (inactive)
14 | CC(C)c1nnc(NC(=O)c2cccc(-n3cnnn3)c2)s1 | > 80 µM (inactive)
15 | O=S(=O)(Nc1ccc(Cl)cc1)c1ccc(N2CCOCC2)c(NC(=S)NCCN2CCOCC2)c1 | > 80 µM (inactive)
16 | [O-]/[N+](=C\c1ccco1)c1ccc(Cl)cc1 | > 80 µM (inactive)
17 | CCn1c(N)c(C(=O)NC)sc1=S | > 80 µM (inactive)
18 | O=C1Nc2cc(C(=O)NCCCN3CCCC3)ccc2S/C1=C/c1cccc(Cl)c1 | > 80 µM (inactive)
19 | CCOc1ccc2ccccc2c1/C=N/NC(=O)c1ccncc1 | > 80 µM (inactive)
20 | CC1CCc2c(nc3sc4c(c3c2N)CCCC4)C1 (configuration not stated) | > 80 µM (inactive)
21 | OCc1ccccc1SSc1ccccc1CO | 56.2 µM
22 | Nn1c(CSc2nc3ccccc3o2)nnc1CSc1nc2ccccc2o1 | > 80 µM (inactive)
23 | COc1ccccc1NS(=O)(=O)c1cc(NC(=O)c2ccc(Cl)nc2)ccc1N1CCCC1 | > 80 µM (inactive)
24 | COc1ccc(N2CSC3=C(C#N)C(c4ccc(OC)c(OC)c4)CC(=O)N3C2)c(OC)c1 (configuration not stated) | > 80 µM (inactive)
25 | O=C(NC1=CC(=O)c2ccccc2C1=O)c1ccccc1 | > 80 µM (inactive)
26 | COc1cc(CNc2ccc(N3CCCC3)cc2)ccc1OCc1ccccc1F | > 80 µM (inactive)

Row | Structure (SMILES) | IC50
27 | CN(C)c1nc(=NCc2cccs2)ss1 | > 80 µM (inactive)
28 | CN(C)c1ncc(C2=C(Cl)C(=O)C(N3CCCC3)=C(Cl)C2=O)s1 | > 80 µM (inactive)
29 | COC(=O)[C@H](CCSC)NC(=O)c1cc2c(cn1)[nH]c1ccccc12 | > 80 µM (inactive)
30 | O=C(Cn1sc2ccccc2c1=O)Nc1ccccc1 | 15.6 µM
31 | CC(C)Cn1c([N+](=O)[O-])nc2c1c(=O)[nH]c(=O)n2C | > 80 µM (inactive)
32 | Cc1nn(-c2ccccc2)c(Cl)c1/C=N/Nc1nc2ccccc2n1C | > 80 µM (inactive)
33 | Cc1ccc(S(=O)(=O)/N=C2/C=C(C3C(=O)CC(C)(C)CC3=O)C(=O)c3ccccc32)cc1 | > 80 µM (inactive)
34 | CN1CCc2cccc3c2[C@@H]1Cc1ccc(O)c(O)c1-3 | > 80 µM (inactive)
35 | COC1=C(N)C(=O)c2nc(C)ccc2C1=O | > 80 µM (inactive)
36 | CCOc1ccc(Cl)cc1/C=N/NC(N)=O | > 80 µM (inactive)
37 | CN1CCN(C(=S)c2ccc(Br)cc2)CC1 | > 80 µM (inactive)
38 | O=C1CCC[C@@H]2[C@@H](Cc3ccccc3)[C@H](N3CCN(c4ccccc4)CC3)C[C@@H]3CCN1[C@@H]32 | > 80 µM (inactive)
39 | O=c1[nH]sc2cc(F)ccc12 | > 80 µM (inactive)
40 | O=C(CNc1ccc2c(c1)OCO2)N/N=C\c1cn(Cc2ccccc2)c2ccccc12 | > 80 µM (inactive)
41 | [O-]/[N+](=C\c1ccncc1)c1ccccc1 | > 80 µM (inactive)
42 | O=C(Nc1ccc([N+](=O)[O-])cc1Cl)c1cc(Cl)ccc1O | > 80 µM (inactive)
43 | CCCN1CCc2cc(O)cc3c2[C@H]1Cc1ccc(O)c(O)c1-3 | > 80 µM (inactive)
44 | CN(C)c1cccc2c1c(NC(=O)c1ccc(F)cc1)nn2C | > 80 µM (inactive)
45 | CC1(C)CN(c2ccccc2)N(C(=O)c2ccc(C#N)cc2)C1=O | > 80 µM (inactive)
46 | COc1ccc(CCn2c(NN=C(C)C)nc3c2c(=O)[nH]c(=O)n3C)cc1 | > 80 µM (inactive)
47 | O=C1NC(=S)NC(=O)C1=Cc1ccc(Br)s1 | > 80 µM (inactive)
48 | O=C(CSc1nc2ccccc2[nH]1)NC1CCCc2ccccc21 (configuration not stated) | > 80 µM (inactive)
49 | CN(C)c1ccc2nc3ccc(=O)cc-3sc2c1 | > 80 µM (inactive)
50 | Nc1[nH]c(=O)[nH]c(=O)c1N=Cc1ccccc1 | > 80 µM (inactive)
51 | COc1c(O)ccc2c1CN1CCc3cc4c(cc3C1C2)OCO4 (configuration not stated) | > 80 µM (inactive)
52 | CN(C)Cc1cc(O)c(CN(C)C)cc1O | > 80 µM (inactive)

Row | Structure (SMILES) | IC50
53 | CN(C)S(=O)(=O)c1cccc(-n2sc3ccccc3c2=O)c1 | 13.5 µM
54 | NNC(=O)CN1C(c2ccccc2Br)=Nc2ccc(Br)cc2C1c1ccccc1 (configuration not stated) | > 80 µM (inactive)
55 | CCOC(=O)Cc1csc(-n2sc3ccccc3c2=O)n1 | > 80 µM (inactive)
56 | CCNc1ccccc1CP(=O)(c1ccccc1)c1ccccc1O (configuration not stated) | > 80 µM (inactive)
57 | CC1(C)CC2(CC(c3ccccc3F)c3ccc(O)c(O)c3O2)NC(=S)N1 (configuration not stated) | 32.1 µM
58 | O=C(Nc1ccc(N2CCOCC2)c(Cl)c1)c1ccc(Cl)cc1 | > 80 µM (inactive)
59 | COc1ccc(-n2sc3ccccc3c2=O)cc1 | 13.3 µM
60 | COc1ccc(-n2c(=S)[nH]c3c(sc(=S)n3-c3ccccc3)c2=O)c(OC)c1 | 58 µM
61 | Cc1cc(C)c2c(=O)n(CC(=O)N3CCC(N4CCCCC4)CC3)sc2n1 | > 80 µM (inactive)
62 | NS(=O)(=O)c1ccc(N/N=C/c2ccc(O)c(O)c2O)c([N+](=O)[O-])c1 | 36.3 µM
63 | O=C(CNC(=O)c1ccccc1)NCC(=O)OCC(=O)c1ccc([N+](=O)[O-])cc1 | 59.6 µM
64 | Cc1ccc(NC(=O)Cn2sc3ccccc3c2=O)cc1 | 15 µM
65 | Cc1ccc(/C=C/C(=O)NCCc2cccc(Cl)c2)o1 | > 80 µM (inactive)
66 | CC(SCC(=O)Nc1ccccc1)c1nc2ccccc2c(=O)[nH]1 (configuration not stated) | > 80 µM (inactive)
67 | Cn1c(-c2sccc2OCc2cccc(C(F)(F)F)c2)n[nH]c1=S | > 80 µM (inactive)
68 | COc1ccc(N2CSC3=C(C#N)C(c4cc(OC)c(OC)cc4OC)CC(=O)N3C2)c(OC)c1 (configuration not stated) | > 80 µM (inactive)
69 | O=C1C(c2cc(=O)c3ccccc3[nH]2)=C(O)c2ccccc21 | > 80 µM (inactive)
70 | CN(C)c1ccc(C=c2c3cc([N+](=O)[O-])ccc3n3c2cc(-c2ccccc2)[n+]3C)cc1 | 33.2 µM
71 | CS(=O)(=O)c1ccc(N)c(SSc2cc(S(C)(=O)=O)ccc2N)c1 | 17.6 µM
72 | COc1ccc(NC(C)C(=O)N/N=C/c2cc(Br)ccc2OC)cc1 (configuration not stated) | > 80 µM (inactive)
73 | CCn1c(=O)n(CC)c2cc(N3CCCC3)c(NC(=O)c3cccc(C)c3)cc21 | > 80 µM (inactive)
74 | CCOC(=O)c1ccc(-n2c(N)c(C(=O)NCC3CCCO3)sc2=S)cc1 (configuration not stated) | > 80 µM (inactive)
75 | COc1cc(/C=C2\SC(c3ccc(C)cc3)=NC2=O)cc(OC)c1O | > 80 µM (inactive)
76 | Cc1cc(O)c(C(C)C)cc1N=Cc1ccc([N+](=O)[O-])cc1 | > 80 µM (inactive)
77 | Cc1ccc(NC(=O)c2cc(N3C(=O)C=CC3=O)ccc2N2CCOCC2)cc1Cl | > 80 µM (inactive)
78 | O=C(N/N=C/c1cccc([N+](=O)[O-])c1)C(=O)N1CCCCCC1 | > 80 µM (inactive)

Row | Structure (SMILES) | IC50
79 | O=c1[nH]c2ccc(NCc3ccccc3OCc3ccc(Cl)cc3)cc2[nH]1 | > 80 µM (inactive)
80 | COc1ccc(OC)c2c1C(=O)C(Cl)=C(Cl)C2=O | 23.3 µM
81 | CCN1/C(=C/C=C/C=C/C=C/c2sc3ccccc3[n+]2CC)Sc2ccccc21 | > 80 µM (inactive)
82 | O=C(Nc1sc2c(c1C(=O)O)CCC2)c1ccc(F)cc1 | > 80 µM (inactive)
83 | CCOC(=O)c1c(C)n(-c2ccc(C)cc2)c2c(C(C(C)=O)C(=O)O)c(Br)c(O)c(O)c12 (configuration not stated) | > 80 µM (inactive)
84 | CN1C(=O)C(N=Nc2ccc([N+](=O)[O-])cc2)SC1=S (configuration not stated) | > 80 µM (inactive)
85 | Cc1ccc(S(=O)(=O)C=CS(=O)(=O)c2ccc(C)cc2)cc1 | 33.6 µM
86 | CCNc1nc(NC(C)C)nc(NS(=O)(=O)c2ccc(Cl)cc2)n1 | > 80 µM (inactive)
87 | Oc1ccc(C2C[C@H]3CC[C@@H]2C3)cc1O (some centres not stated) | 31.3 µM
88 | Oc1ccc(NCc2ccccc2OCc2ccccc2)cc1 | > 80 µM (inactive)
89 | O=C(NCCCN1CCOCC1)c1sc2cc([N+](=O)[O-])ccc2c1Cl | 49.2 µM
90 | O=S(=O)(Nc1c(O)ccc2ccccc12)c1ccccc1 | > 80 µM (inactive)
91 | CCOC(=O)c1ccc(/[N+]([O-])=C/c2ccccc2)cc1 | > 80 µM (inactive)
92 | COc1ccc(N=C2C(=S)N(c3ccc(OC)cc3)C(=NS(=O)(=O)c3ccccc3)N2c2ccccc2)cc1 | > 80 µM (inactive)
93 | Cc1ccc2nc(-c3ccc(NC(=S)NC4CC(C)(C)NC(C)(C)C4)cc3)sc2c1 | > 80 µM (inactive)
94 | CC(C)Nc1ccc(Nc2ccccc2)cc1 | > 80 µM (inactive)
95 | CC1=CC(C)(C)Nc2ccc(OC(=O)CN3C(=O)c4cccc5cccc(c45)C3=O)cc21 | > 80 µM (inactive)
96 | Cc1ccccc1OCC(=O)N/N=C/c1ccc(Sc2nc3ccccc3s2)o1 | > 80 µM (inactive)
97 | O=C1OC(c2ccc3ccccc3c2O)(c2ccc3ccccc3c2O)c2ccccc21 | > 80 µM (inactive)
98 | COC1=C(OC)C(=O)C(Sc2ccc3ccccc3c2)=CC1=O | 30.2 µM
99 | C=CCN1CCc2cccc3c2[C@H]1Cc1ccc(O)c(O)c1-3 | > 80 µM (inactive)
100 | COc1cc(N=Cc2c(CO)cnc(C)c2O)cc(OC)c1OC | > 80 µM (inactive)
101 | c1ccc(SSc2ccccn2)nc1 | 60.8 µM
102 | O=S(=O)(Nc1cc(Sc2cccc3cccnc23)c(O)c2ccccc12)c1ccc(F)cc1 | > 80 µM (inactive)
